Data reported in ChEMBL document CHEMBL5537116, “Synthesis and structure-activity optimization of hydroxypyridinones against rhabdomyolysis-induced acute kidney injury” (Eur J Med Chem, 2024).
The source made the active and inactive calls. The rule behind the calls is not given here.

What was measured:
[1] = Cytotoxicity against human HK-2 cells assessed as cell growth inhibition incubated for 48 hrs by SRB assay; type: toxicity, cell-based
[2] = system: HK-2; assay: Inhibition of RSL-3 induced ferroptosis in human HK-2 cells incubated for 48 hrs in presence of FAC; type: functional, cell-based; conditions: HK-2, 48 h
[3] = Competitive binding affinity to Fe3+ ion assessed as metal chelating activity by measuring binding constant by calcein probe based fluorescence displacement assay
[4] = Antioxidant activity assessed as ABTS radical scavenging activity incubated for 6 mins by absorbance based microplate reader analysis; type: functional
[5] = system: HK-2; assay: Anti-ferroptotic activity against RSL3-induced ferroptosis in human HK-2 cells assessed as decrease in lipid peroxidation by measuring fluorescent intensity preincubated with FAC for 2 hrs followed by compound addition and measured after 12 hrs by flow cytometry analysis; type: functional, cell-based
[6] = Potency index, ratio of trolox IC50 to test compound IC50 for antioxidant activity assessed as ABTS radical scavenging activity incubated for 6 mins by absorbance based microplate reader analysis; type: functional
[7] = system: Mus musculus; assay: (§1) Reno-protective activity against glycerol-induced rhabdomyolysis acute kidney injury C57BL/6 mouse model assessed as decrease in serum creatinine level at 50 mg/kg, ip preadministered with every 12 hrs of compound for 5 times in first three days with subsequent 1 hrs compound treatment after 16 hrs of water deprivation followed by glycerol administration and measured on day 5; type: functional; design: scale not given: the % may be the effect or the level left; conditions: time 5 day
[8] = Sub-acute in C57BL/6 mouse assessed as animal death at 1 mg/kg, ip measured on day 2; type: toxicity, organism-based; conditions: in vivo, 48 h, time 2 day
[9] = system: Mus musculus; assay: as §1, with “BUN” for “serum creatinine”; type: functional; design: scale not given: the % may be the effect or the level left; conditions: time 5 day
[10] = system: HK-2; assay: Upregulation in intracellular HIF-1alpha level in human HK-2 cells at 50 uM under normoxia condition incubated for 12 hrs by Western blot analysis; type: functional, cell-based
[11] = system: Mus musculus; assay: as §1, with “4” for “50”; type: functional; design: scale not given: the % may be the effect or the level left; conditions: time 5 day
[12] = system: Mus musculus; assay: Upregulation of HIF-1alpha expression in C57BL/6 mouse kidney at 50 mg/kg, ip administered for every 12 hrs for 3 days and measured after 5 days; type: functional, organism-based
[13] = system: HK-2; assay: Upregulation in intracellular HIF-1alpha level in human HK-2 cells at 20 uM under normoxia condition incubated for 12 hrs by Western blot analysis; type: functional, cell-based
[14] = system: Mus musculus; assay: as §1, with “4 to 10” for “50”; type: functional, organism-based; conditions: dose 4-10 mg/kg, time 5.0 day
[15] = Sub-acute in C57BL/6 mouse assessed as poisoning symptoms at 1 mg/kg, ip measured for 7 days; type: toxicity, organism-based; conditions: in vivo, 168 h, time 7 day
[16] = system: Mus musculus; assay: as §1, with “BUN” for “serum creatinine”, “4” for “50”; type: functional; design: scale not given: the % may be the effect or the level left; conditions: time 5 day
[17] = Sub-acute in C57BL/6 mouse assessed as change in body weight at 200 mg/kg, ip measured for 7 days; type: toxicity, organism-based; conditions: in vivo, 168 h, time 7 day
[18] = system: Mus musculus; assay: (§2) Reno-protective activity against glycerol-induced rhabdomyolysis acute kidney injury C57BL/6 mouse model assessed as downregulation of Ptgs2 mRNA expression at 4 to 10 mg/kg, ip preadministered with every 12 hrs of compound for 5 times in first three days with subsequent 1 hrs compound treatment after 16 hrs of water deprivation followed by glycerol administration and measured on day 5 by qRT-PCR analysis; type: functional, organism-based; conditions: dose 4-10 mg/kg, time 5.0 day
[19] = Sub-acute in C57BL/6 mouse assessed as animal death at 1 mg/kg, ip measured for 7 days; type: toxicity, organism-based; conditions: in vivo, 168 h, time 7 day
[20] = system: Mus musculus; assay: as §1, with “10” for “50”; type: functional; design: scale not given: the % may be the effect or the level left; conditions: time 5 day
[21] = system: Mus musculus; assay: as §1, with “BUN” for “serum creatinine”, “4 to 10” for “50”; type: functional, organism-based; conditions: dose 4-10 mg/kg, time 5.0 day
[22] = system: Mus musculus; assay: as §2, with “decrease in iron accumulation in kidney” for “downregulation of Ptgs2 mRNA expression”, “5” for “5 by qRT-PCR analysis”; type: functional, organism-based; conditions: dose 4-10 mg/kg, time 5.0 day
[23] = target: Hypoxia-inducible factor 1-alpha (Homo sapiens) (UniProt Q16665); assay: Induction of HIF-1alpha stabilization in human HK-2 cells by Western blotting analysis; type: cell-based; conditions: dose 5-20 µM
[24] = system: Mus musculus; assay: as §1, with “BUN” for “serum creatinine”, “10” for “50”; type: functional; design: scale not given: the % may be the effect or the level left; conditions: time 5 day
[25] = system: Mus musculus; assay: as §2, with “[…]” for “Ptgs2”; type: functional, organism-based; conditions: dose 4-10 mg/kg, time 5.0 day
[26] = Toxicity in C57BL/6 mouse assessed as kidney damage at 10 mg/kg, ip measured for 3 days by H and E staining based analysis; type: organism-based; conditions: in vivo, 72 h, time 3 day

Sequence of Hypoxia-inducible factor 1-alpha (Homo sapiens) (Q16665 whole entry, looked up): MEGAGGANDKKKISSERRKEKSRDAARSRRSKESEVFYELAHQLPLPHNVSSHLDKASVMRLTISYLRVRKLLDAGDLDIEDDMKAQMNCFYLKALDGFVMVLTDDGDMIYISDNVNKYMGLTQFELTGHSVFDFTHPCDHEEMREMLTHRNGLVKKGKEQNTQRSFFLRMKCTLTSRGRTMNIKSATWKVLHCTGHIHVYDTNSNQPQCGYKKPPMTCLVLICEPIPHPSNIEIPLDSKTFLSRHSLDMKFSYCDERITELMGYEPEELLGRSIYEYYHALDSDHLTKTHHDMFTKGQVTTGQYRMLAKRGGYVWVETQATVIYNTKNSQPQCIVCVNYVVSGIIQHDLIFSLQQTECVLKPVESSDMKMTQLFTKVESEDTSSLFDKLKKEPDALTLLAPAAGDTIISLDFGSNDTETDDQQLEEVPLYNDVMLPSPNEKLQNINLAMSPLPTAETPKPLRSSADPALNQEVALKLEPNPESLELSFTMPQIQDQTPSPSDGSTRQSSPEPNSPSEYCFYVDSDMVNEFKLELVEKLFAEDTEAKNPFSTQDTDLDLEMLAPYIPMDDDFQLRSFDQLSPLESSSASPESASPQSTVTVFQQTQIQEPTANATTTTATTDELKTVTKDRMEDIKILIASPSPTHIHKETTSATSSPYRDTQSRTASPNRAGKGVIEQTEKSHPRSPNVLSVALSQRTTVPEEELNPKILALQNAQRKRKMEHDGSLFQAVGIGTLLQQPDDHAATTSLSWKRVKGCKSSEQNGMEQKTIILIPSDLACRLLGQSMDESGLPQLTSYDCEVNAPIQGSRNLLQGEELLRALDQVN

## Cc1c(O)c(=O)ccn1-c1ccc(N(C)C)cc1
[1]
  CC50 at 48 h: > 100 µM
[2]
  EC50: 45 µM
[3]
  Kb: 0.98 10^22/M

## Cc1c(O)c(=O)ccn1-c1ccc(NCCN2CCN(C)CC2)cc1
[1]
  CC50 at 48 h: > 100 µM
[2]
  EC50: 44 µM
[3]
  Kb: 1.22 10^22/M

## Cc1c(O)c(=O)ccn1-c1ccc(OCCOCCN(C)C)cc1
[4]
  IC50: 22.2 µM
[1]
  CC50 at 48 h: 68 µM
[5]
  Activity: Active
[2]
  EC50: 28 µM
[3]
  Kb: 1.79 10^22/M
[6]
  Ratio IC50: 1.5

## CCc1c(O)c(=O)ccn1CCc1ccccc1
[1]
  CC50 at 48 h: > 100 µM
[2]
  EC50: > 100 µM
[3]
  Kb: 1.69 10^22/M

## Cc1c(O)c(=O)ccn1-c1ccc(N2CCN(C)CC2)c(F)c1
[1]
  CC50 at 48 h: > 100 µM
[2]
  EC50: 93 µM
[3]
  Kb: 1.17 10^22/M

## Cc1c(O)c(=O)ccn1-c1ccc(OC2CCN(C)C2)cc1 (centres undefined)
[1]
  CC50 at 48 h: > 100 µM
[2]
  EC50: > 100 µM
[3]
  Kb: 1.35 10^22/M

## Cc1c(O)c(=O)ccn1-c1ccc(OCCCN2CCOCC2)cc1
[4]
  IC50: 17.2 µM
[1]
  CC50 at 48 h: 78 µM
[5]
  Activity: Active
[2]
  EC50: 20 µM
[3]
  Kb: 1.23 10^22/M
[6]
  Ratio IC50: 1.5

## Cc1c(O)c(=O)ccn1-c1ccc(OCCN2CCCCC2)cc1
[1]
  CC50 at 48 h: > 100 µM
[2]
  EC50: 86 µM
[3]
  Kb: 2.23 10^22/M

## Cc1c(O)c(=O)ccn1-c1ccc(N2CCOCC2)cc1
[1]
  CC50 at 48 h: > 100 µM
[2]
  EC50: 58 µM
[3]
  Kb: 1.33 10^22/M

## COc1cc(N2CCN(C)CC2)ccc1-n1ccc(=O)c(O)c1C
[1]
  CC50 at 48 h: > 100 µM
[2]
  EC50: > 100 µM
[3]
  Kb: 1.88 10^22/M

## Cc1c(O)c(=O)ccn1C [DEFERIPRONE]
[4]
  IC50: 16 µM
[1]
  CC50 at 48 h: > 100 µM
[2]
  EC50: > 100 µM
[3]
  Kb: 1.52 10^22/M
[7]
  Activity: 19%
[8]
  Activity: Toxic
[9]
  Activity: 18%

## Cc1c(O)c(=O)ccn1-c1ccc(N2CCN(C)CC2)cc1
[1]
  CC50 at 48 h: 81 µM
[2]
  EC50: 60 µM
[10]
  Activity: Active
[3]
  Kb: 1.3 10^22/M

## Cc1c(O)c(=O)ccn1CC1CCCCC1
[1]
  CC50 at 48 h: > 100 µM
[2]
  EC50: > 100 µM
[3]
  Kb: 1.32 10^22/M

## Cc1c(O)c(=O)ccn1-c1ccc(OCC2CCN(C)CC2)cc1
[1]
  CC50 at 48 h: > 100 µM
[2]
  EC50: 43 µM
[3]
  Kb: 1.12 10^22/M

## Cc1c(O)c(=O)ccn1-c1ccc(OCCN(C)C)cc1
[4]
  IC50: 22.9 µM
[1]
  CC50 at 48 h: > 100 µM
[5]
  Activity: Active
[2]
  EC50: 18 µM
[3]
  Kb: 1.37 10^22/M
[6]
  Ratio IC50: 1.5

## Cc1c(O)c(=O)ccn1CCc1ccccc1
[1]
  CC50 at 48 h: > 100 µM
[2]
  EC50: > 100 µM
[3]
  Kb: 1 10^22/M

## Cc1c(O)c(=O)ccn1-c1ccc(NCCN(C)C)cc1
[1]
  CC50 at 48 h: > 100 µM
[2]
  EC50: 35 µM
[3]
  Kb: 1.4 10^22/M

## Cc1c(O)c(=O)ccn1-c1ccc(N(C)CCN(C)C)cc1.Cl
[11]
  Activity: 14%
[4]
  IC50: 12.3 µM
[1]
  CC50 at 48 h: > 100 µM
[12]
  Activity: Active
[5]
  Activity: Active
[2]
  EC50: 20 µM
[13]
  Activity: Active
[14]
  Activity: Active
[15]
  Activity: Non-Toxic
[16]
  Activity: 19%
[17]
  Activity: Non-Toxic
[18]
  Activity: Active
[19]
  Activity: Non-Toxic
[20]
  Activity: 68%
[3]
  Kb: 1.16 10^22/M
[21]
  Activity: Active
[22]
  Activity: Active
[23]
  Activity: Dose-Dependent Effect
[24]
  Activity: 44%
[6]
  Ratio IC50: 1.5
[25]
  Activity: Active
[26]
  Activity: Non-Toxic

## Cc1c(O)c(=O)ccn1-c1ccc(N(C)CCO)cc1
[1]
  CC50 at 48 h: > 100 µM
[2]
  EC50: 46 µM
[3]
  Kb: 1.15 10^22/M

## Cc1c(C)c2c(c(C)c1O)CCC(C)(C(=O)O)O2 (centres undefined) [TROLOX]
[4]
  IC50: 33.7 µM

## Cc1c(O)c(=O)ccn1CCN(C)C
[1]
  CC50 at 48 h: > 100 µM
[2]
  EC50: > 100 µM
[3]
  Kb: 1.21 10^22/M
